# Reference: patent US9676779B2, “Small molecule CFTR correctors” (DISCOVERYBIOMED, INC., priority 2012, dated 2017)
# Target: T1, delF508-CFTR (Homo sapiens, UniProt P13569, DEL508-508)
# T1 construct: Unaltered CFBE41o− cells were used as the model; endogenous in cells; host or cells: CFBE41o- human CF bronchial epithelial cells (delF508 homozygous, not overexpressing)
# Experiment: SPQ halide-sensitive fluorescence dye profiling assay (rescue of halide efflux)
# Assay type: cell-based
# Settings: for EC50 (μM) / EC50: SPQ assay, 8-point concentration-response curve, CFBE41o− cells; for Emax: VX-809 at 3 μM treated as 100% efficacy; for Efficacy Comparison to 3 μM VX-809: compared to VX-809 at 3 μM; for potency and efficacy versus VX-809 in SPQ profiling: compounds advanced to further profiling
# Protocol: The method of profiling can include detecting the rescue of halide efflux from a cell. The step of detecting a rescue of halide efflux from the cell can be monitored using the halide quenched dye 6-methoxy-N-(3-sulfopropyl)-quinolinium (SPQ, Molecular Probes Inc., Eugene, Oreg.). In this method, cells are treated with a compound as described herein for a period of time (e.g., 48 hours). The rescue or correction of halide efflux is then detected using the SPQ assay with the halide dye. […] Optionally, the halide efflux is chloride efflux. The method of screening can further comprise performing the method with multiple concentrations of the compound.
# The compounds were initially subjected to the SPQ halide-sensitive fluorescence dye profiling assay for rescue or correction of membrane chloride ion permeability or transport with an 8-point concentration-response curve. The EC50 values for the compounds described herein were determined and compared to the efficacy of the industry standard Vertex 809 (VX-809; Vertex Pharmaceuticals, Cambridge, Mass.) at 3 μM, which is the maximally effective profiling dose for VX-809 (Table 1). The VX-809 dosage at 3 μM was treated as having 100% efficacy in the comparison.
# To perform the SPQ high throughput screening assay, CFBE41o− cells were seeded into 96-well microtiter plates and were loaded with the fluorescent halide-sensitive dye, SPQ, in serum-containing culture medium. Certain wells were loaded with known positive control corrector molecules, including VX-809. The test compounds were loaded into wells and were tested in triplicate wells at a 10 μM dose and incubated over 48 hours at room temperature. During the 48 hour period, SPQ was absorbed. Plates were washed in a sodium chloride (NaCl) based Ringer and read once over two minutes to set the baseline SPQ fluorescence activity. Then, NaCl was replaced by sodium nitrate (NaNO3) based Ringer. The plates were read twice over four minutes. The primary high throughput screen (HTS) data were analyzed to detect any function of rescued delF508-CFTR under basal conditions. The plate was read up to two times to complete the SPQ HTS assay.
# T1 sequence (P13569 with tags, fused parts or gaps DEL508-508): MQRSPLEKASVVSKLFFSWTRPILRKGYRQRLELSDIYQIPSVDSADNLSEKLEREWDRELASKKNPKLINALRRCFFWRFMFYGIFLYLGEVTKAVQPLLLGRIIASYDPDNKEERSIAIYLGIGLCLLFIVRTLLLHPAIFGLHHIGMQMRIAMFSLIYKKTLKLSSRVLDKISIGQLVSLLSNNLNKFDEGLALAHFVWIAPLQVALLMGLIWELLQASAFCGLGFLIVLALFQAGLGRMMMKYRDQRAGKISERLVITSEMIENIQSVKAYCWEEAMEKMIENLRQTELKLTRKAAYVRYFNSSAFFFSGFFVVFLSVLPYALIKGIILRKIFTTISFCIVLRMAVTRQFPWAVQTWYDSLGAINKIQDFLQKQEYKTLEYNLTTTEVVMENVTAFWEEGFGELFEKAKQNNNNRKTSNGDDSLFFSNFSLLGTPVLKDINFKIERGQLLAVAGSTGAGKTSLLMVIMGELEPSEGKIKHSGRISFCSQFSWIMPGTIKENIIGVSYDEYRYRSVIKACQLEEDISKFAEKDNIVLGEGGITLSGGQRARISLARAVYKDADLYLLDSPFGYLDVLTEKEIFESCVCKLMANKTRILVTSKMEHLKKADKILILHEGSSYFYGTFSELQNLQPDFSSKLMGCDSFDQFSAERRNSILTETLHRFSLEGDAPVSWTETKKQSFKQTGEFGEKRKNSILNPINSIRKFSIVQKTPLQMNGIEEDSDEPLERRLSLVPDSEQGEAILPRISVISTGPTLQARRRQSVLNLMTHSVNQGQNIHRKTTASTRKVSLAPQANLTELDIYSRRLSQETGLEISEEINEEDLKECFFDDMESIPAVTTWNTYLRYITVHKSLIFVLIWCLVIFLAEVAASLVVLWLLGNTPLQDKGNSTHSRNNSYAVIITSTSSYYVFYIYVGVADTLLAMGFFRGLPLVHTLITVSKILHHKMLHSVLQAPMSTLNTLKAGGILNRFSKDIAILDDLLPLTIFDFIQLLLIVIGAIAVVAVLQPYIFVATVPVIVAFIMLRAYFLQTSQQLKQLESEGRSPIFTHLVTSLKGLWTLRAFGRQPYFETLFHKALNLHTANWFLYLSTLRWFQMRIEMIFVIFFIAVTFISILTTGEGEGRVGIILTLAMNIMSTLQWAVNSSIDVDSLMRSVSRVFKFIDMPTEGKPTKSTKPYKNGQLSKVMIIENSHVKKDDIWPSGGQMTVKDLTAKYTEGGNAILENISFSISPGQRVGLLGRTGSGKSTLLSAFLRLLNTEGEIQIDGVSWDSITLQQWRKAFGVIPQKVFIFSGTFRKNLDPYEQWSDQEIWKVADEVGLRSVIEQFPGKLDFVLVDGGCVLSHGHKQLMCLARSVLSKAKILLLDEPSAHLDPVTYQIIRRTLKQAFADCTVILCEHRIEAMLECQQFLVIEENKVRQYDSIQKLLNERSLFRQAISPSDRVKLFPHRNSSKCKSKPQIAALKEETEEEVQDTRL
SMILES,EC50 (μM),Emax [%],EC50 [µM],Efficacy Comparison to 3 μM VX-809,potency and efficacy versus VX-809 in SPQ profiling
CCOc1ccc(-c2c(C)nn3c(C)c(C(=O)O)nnc23)cc1Cl [Compound C-60],No effect,0,,,
COc1ccc(-c2c(C)nn3c(C)c(C(=O)O)nnc23)cc1OC [Compound C-6],,170,9.9,3-fold greater than VX-809,
Cc1nn2cc(C(=O)O)nnc2c1-c1ccc(Cl)cc1 [Compound C-3],,200,11.5,Equivalent to VX-809,
CCOC(=O)c1ccc2c(-c3ccc(Cl)c(Cl)c3)n[nH]c2n1 [Compound C-66.1],No effect,0,,,
Cc1nn2c(C)c(C(=O)O)nnc2c1-c1ccc(F)c(F)c1 [Compound C-23],,110,,Equivalent to VX-809,
CCOC(=O)c1nnc2c(-c3ccc(OC)c(OC)c3)c(C)nn2c1C [Compound C-16],,80,2.2,2-fold greater than VX-809,
Cc1nn2c(C)c(C(=O)OC(C)(C)C)nnc2c1-c1ccc(Cl)c(Cl)c1 [Compound C-34],,0,0.58,,
O=C(O)c1ccc2c(-c3ccc(Cl)c(Cl)c3)noc2n1 [Compound C-68],,25,,,
Cc1nn2c(C)c(C(=O)O)nnc2c1C1CCCCC1 [Compound C-51],,50,3.4,Equivalent to VX-809,
Cc1nnc(-c2nnc3c(-c4ccc(Cl)c(Cl)c4)c(C)nn3c2C)o1 [Compound C-42],No effect,5,,,
CNC(=O)c1nnc2c(-c3ccc(Cl)c(Cl)c3)c(C)nn2c1C [Compound C-30],,50,26.3,Less than VX-809,
COc1ccc(Cn2nc(-c3ccc(Cl)c(Cl)c3)c3ccc(C(=O)O)nc32)cc1 [Compound C-66.2],,100,11,,
Cc1c(C(=O)O)nnc2c(-c3ccccc3)c(-c3ccccc3)nn12 [Compound C-11],No effect,0,,,
Cc1nn2c(C)c(C(=O)C(=O)O)nnc2c1-c1ccc(Cl)c(Cl)c1 [Compound C-32],,160,6,2.5-fold greater than VX-809,
Cc1nn2c(C)c(C(=O)Oc3ccccc3)nnc2c1-c1ccc(Cl)c(Cl)c1 [Compound C-35],,100,0.7,Equivalent to VX-809,
Cc1nn2c(C)c(C(=O)N(C)C)nnc2c1-c1ccc(Cl)c(Cl)c1 [Compound C-31],No effect,0,,,
Cc1nn2c(C)c(C(=O)O)nnc2c1-c1ccc(OC(C)(C)C)cc1 [Compound C-56],,20,11.6,Less than VX-809,
Cc1nn2c(C)c(C(=O)OC(C)C)nnc2c1-c1ccc(Cl)cc1 [Compound C-21],,50,1.1,2.5-fold greater than VX-809,
CCOC(=O)c1ccc2c(-c3ccc(Cl)c(Cl)c3)noc2n1 [Compound C-68.1],,20,,,
Cc1nn2c(C)c(CS(C)(=O)=O)nnc2c1-c1ccc(Cl)c(Cl)c1 [Compound C-70],,110,3.7,2-fold greater than VX-809,
Cc1nn2c(N)c(C(=O)O)nnc2c1-c1ccc(Cl)c(Cl)c1 [Compound C-25],,100,0.83,10-fold greater than VX-809,superior potency and efficacy to VX-809

SMILES,EC50 (μM),Emax [%],EC50 [µM],Efficacy Comparison to 3 μM VX-809,potency and efficacy versus VX-809 in SPQ profiling
Cc1nn2c(N)c(C(=O)O)nnc2c1-c1ccc(Cl)cc1 [Compound C-27],,90,3.3,2-fold greater than VX-809,
O=C(O)c1cn2ncc(-c3ccc(Cl)cc3)c2nn1 [Compound C-4],No effect,0,,,
CCS(=O)(=O)NC(=O)c1nnc2c(-c3ccc(Cl)c(Cl)c3)c(C)nn2c1C [Compound C-37],,80,5.1,Equivalent to VX-809,
Cc1nn2c(C)c(-c3nnco3)nnc2c1-c1ccc(Cl)c(Cl)c1 [Compound C-43],,50,11,Equivalent to VX-809,
CCOc1ccc(-c2c(C)nn3c(C)c(C(=O)O)nnc23)cc1 [Compound C-7],,220,7,3-fold greater than VX-809,
CCOC(=O)c1nnc2c(-c3ccc(Cl)cc3)c(C)nn2c1C(=O)OCC [Compound C-28.1],No effect,0,,,
CCOC(=O)c1cn2ncc(-c3ccc(Cl)cc3)c2nn1 [Compound C-14],No effect,0,,,
Cc1nn2c(C)c(-c3nnn[nH]3)nnc2c1-c1ccc(Cl)c(Cl)c1 [Compound C-40],No effect (toxic,0,,,
CCCCOc1ccc(-c2c(C)nn3c(C)c(C(=O)O)nnc23)cc1 [Compound C-54],,125,6.7,2-fold greater than VX-809,
COc1cc(-c2c(C)nn3c(C)c(C(=O)O)nnc23)ccc1Cl [Compound C-59.1],,40,10.5,Less than VX-809,
CCCOc1ccc(-c2c(C)nn3c(C)c(C(=O)O)nnc23)cc1 [Compound C-8],,155,5.7,2-fold greater than VX-809,
Cc1nn2c(C)c(C(=O)O)cnc2c1-c1ccc(Cl)c(Cl)c1 [Compound C-45],,50,2.5,Equivalent to VX-809,
Cc1nn2c(C)c(C(=O)O)nnc2c1-c1ccc2c(c1)OCO2 [Compound C-57],,20,12,,
Cc1cnc(-c2nnc3c(-c4ccc(Cl)c(Cl)c4)c(C)nn3c2C)o1 [Compound C-41],No effect,0,,,
Cc1nn2c(C)c(C(=O)O)nnc2c1-c1ccc(Cl)cc1 [Compound C-1],,200,1.9,,
Cc1nn2c(C)c(C(=O)O)nnc2c1-c1ccc(OC(C)C)cc1 [Compound C-55],,100,0.66,10-fold greater than VX-809,superior potency and efficacy to VX-809
Cc1nn2c(C)c(C(N)=O)nnc2c1-c1ccc(Cl)c(Cl)c1 [Compound C-29],No effect,0,,,
Cc1nn2c(C)c(C(=O)O)nnc2c1Cc1ccccc1 [Compound C-52],,70,20,Less than VX-809,
CCOC(=O)c1nnc2c(-c3ccc(O)cc3)c(C)nn2c1C [Compound C-19],No effect,0,,,
COC(=O)C(=O)c1nnc2c(-c3ccc(Cl)c(Cl)c3)c(C)nn2c1C [Compound C-32.1],No effect (toxic,5,,,
Cc1nn2c(C)c(C(=O)O)nnc2c1Cc1ccc(Cl)c(Cl)c1 [Compound C-53],,75,,Less than VX-809,
